According to ChEMBL document CHEMBL5528040, “Design and Synthesis of Novel 3-Nitro-1H-1,2,4-triazole-1,2,3-triazole-1,4-disubstituted Analogs as Promising Antitrypanosomatid Agents: Evaluation of In Vitro Activity against Chagas Disease and Leishmaniasis” (J Med Chem, 2024):

Key:
[1] = Mutagenicity in Salmonella typhimurium TA98 assessed as mutagenic index ratio at 1500 ug per plate incubated for 90 mins by AMES test; format: toxicity, Salmonella enterica subsp. enterica serovar Typhimurium; settings: in vivo, 1.5 h, dose 1500 µg
[2] = Mutagenicity in Salmonella typhimurium TA102 assessed as mutagenic index ratio at 150 ug per plate incubated for 90 mins by AMES test; format: toxicity, Salmonella enterica subsp. enterica serovar Typhimurium; settings: in vivo, 1.5 h, dose 150 µg
[3] = Mutagenicity in Salmonella typhimurium TA102 assessed as mutagenic index ratio at 50 ug per plate incubated for 90 mins by AMES test; format: toxicity, Salmonella enterica subsp. enterica serovar Typhimurium; settings: in vivo, 1.5 h, dose 50 µg
[4] = Mutagenicity in Salmonella typhimurium TA102 assessed as mutagenic index ratio at 500 ug per plate incubated for 90 mins by AMES test; format: toxicity, Salmonella enterica subsp. enterica serovar Typhimurium; settings: in vivo, 1.5 h, dose 500 µg
[5] = Mutagenicity in Salmonella typhimurium TA102 assessed as number of revertant colonies at 1500 ug per plate incubated for 90 mins by AMES test (reference value: 110.67 +/- 20.15); format: toxicity, Salmonella enterica subsp. enterica serovar Typhimurium; settings: in vivo, 1.5 h, dose 1500 µg
[6] = Mutagenicity in Salmonella typhimurium TA98 assessed as number of revertant colonies at 150 ug per plate incubated for 90 mins by AMES test (reference value: 22.67 +/- 0.58); format: toxicity, Salmonella enterica subsp. enterica serovar Typhimurium; settings: in vivo, 1.5 h, dose 150 µg
[7] = Mutagenicity in Salmonella typhimurium TA102 assessed as number of revertant colonies at 150 ug per plate incubated for 90 mins by AMES test (reference value: 110.67 +/- 20.15); format: toxicity, Salmonella enterica subsp. enterica serovar Typhimurium; settings: in vivo, 1.5 h, dose 150 µg
[8] = Mutagenicity in Salmonella typhimurium TA100 assessed as mutagenic index ratio at 50 ug per plate incubated for 90 mins in presence of S9 fraction by AMES test; format: toxicity, subcellular, Salmonella enterica subsp. enterica serovar Typhimurium; settings: s9, 1.5 h, dose 50 µg
[9] = Mutagenicity in Salmonella typhimurium TA98 assessed as mutagenic index ratio at 5000 ug per plate incubated for 90 mins in presence of S9 fraction by AMES test; format: toxicity, subcellular, Salmonella enterica subsp. enterica serovar Typhimurium; settings: s9, 1.5 h, dose 5000 µg
[10] = Mutagenicity in Salmonella typhimurium TA102 assessed as mutagenic index ratio at 500 ug per plate incubated for 90 mins in presence of S9 fraction by AMES test; format: toxicity, subcellular, Salmonella enterica subsp. enterica serovar Typhimurium; settings: s9, 1.5 h, dose 500 µg
[11] = Mutagenicity in Salmonella typhimurium TA102 assessed as mutagenic index ratio at 1500 ug per plate incubated for 90 mins in presence of S9 fraction by AMES test; format: toxicity, subcellular, Salmonella enterica subsp. enterica serovar Typhimurium; settings: s9, 1.5 h, dose 1500 µg
Trypanosoma cruzi = assay: Potency index, ratio of Benznidazole IC50 to test compound IC50 for antitrypanosomal activity against Trypanosoma cruzi Tulahuen amastigotes transfected with Escherichia coli beta-galactosidase LacZ gene infected in monkey LLC-MK2 cells assessed as inhibition of amastigotes growth incubated for 72 hrs by absorbance based microplate reader analysis; format: functional
[12] = Mutagenicity in Salmonella typhimurium TA100 assessed as mutagenic index ratio at 150 ug per plate incubated for 90 mins by AMES test; format: toxicity, Salmonella enterica subsp. enterica serovar Typhimurium; settings: in vivo, 1.5 h, dose 150 µg
[13] = Mutagenicity in Salmonella typhimurium TA100 assessed as number of revertant colonies at 150 ug per plate incubated for 90 mins in presence of S9 fraction by AMES test (reference value: 122.67 +/- 5.03); format: toxicity, subcellular, Salmonella enterica subsp. enterica serovar Typhimurium; settings: s9, 1.5 h, dose 150 µg
[14] = Mutagenicity in Salmonella typhimurium TA100 assessed as number of revertant colonies at 50 ug per plate incubated for 90 mins in presence of S9 fraction by AMES test (reference value: 122.67 +/- 5.03); format: toxicity, subcellular, Salmonella enterica subsp. enterica serovar Typhimurium; settings: s9, 1.5 h, dose 50 µg
[15] = Mutagenicity in Salmonella typhimurium TA98 assessed as mutagenic index ratio at 150 ug per plate incubated for 90 mins in presence of S9 fraction by AMES test; format: toxicity, subcellular, Salmonella enterica subsp. enterica serovar Typhimurium; settings: s9, 1.5 h, dose 150 µg
[16] = Mutagenicity in Salmonella typhimurium TA100 assessed as number of revertant colonies at 50 ug per plate incubated for 90 mins by AMES test (reference value: 88.00 +/- 2.65); format: toxicity, Salmonella enterica subsp. enterica serovar Typhimurium; settings: in vivo, 1.5 h, dose 50 µg
[17] = Mutagenicity in Salmonella typhimurium TA98 assessed as mutagenic index ratio at 500 ug per plate incubated for 90 mins in presence of S9 fraction by AMES test; format: toxicity, subcellular, Salmonella enterica subsp. enterica serovar Typhimurium; settings: s9, 1.5 h, dose 500 µg
[18] = Selectivity index, ratio of CC50 for cytotoxicity against monkey LLC-MK2 cells to IC50 for antitrypanosomal activity against Trypanosoma cruzi Tulahuen amastigotes transfected with Escherichia coli beta-galactosidase LacZ gene infected in monkey LLC-MK2 cells; format: toxicity, cell-based; settings: read-out: Ratio CC50/IC50
[19] = Mutagenicity in Salmonella typhimurium TA102 assessed as number of revertant colonies at 50 ug per plate incubated for 90 mins by AMES test (reference value: 110.67 +/- 20.15); format: toxicity, Salmonella enterica subsp. enterica serovar Typhimurium; settings: in vivo, 1.5 h, dose 50 µg
[20] = Mutagenicity in Salmonella typhimurium TA102 assessed as number of revertant colonies at 500 ug per plate incubated for 90 mins in presence of S9 fraction by AMES test (reference value: 130.00 +/- 6.93); format: toxicity, subcellular, Salmonella enterica subsp. enterica serovar Typhimurium; settings: s9, 1.5 h, dose 500 µg
[21] = Mutagenicity in Salmonella typhimurium TA98 assessed as number of revertant colonies at 5000 ug per plate incubated for 90 mins in presence of S9 fraction by AMES test (reference value: 21.00 +/- 1.00); format: toxicity, subcellular, Salmonella enterica subsp. enterica serovar Typhimurium; settings: s9, 1.5 h, dose 5000 µg
[22] = Mutagenicity in Salmonella typhimurium TA100 assessed as mutagenic index ratio at 500 ug per plate incubated for 90 mins by AMES test; format: toxicity, Salmonella enterica subsp. enterica serovar Typhimurium; settings: in vivo, 1.5 h, dose 500 µg
[23] = Mutagenicity in Salmonella typhimurium TA102 assessed as mutagenic index ratio at 150 ug per plate incubated for 90 mins in presence of S9 fraction by AMES test; format: toxicity, subcellular, Salmonella enterica subsp. enterica serovar Typhimurium; settings: s9, 1.5 h, dose 150 µg
[24] = Mutagenicity in Salmonella typhimurium TA100 assessed as number of revertant colonies at 1500 ug per plate incubated for 90 mins in presence of S9 fraction by AMES test (reference value: 122.67 +/- 5.03); format: toxicity, subcellular, Salmonella enterica subsp. enterica serovar Typhimurium; settings: s9, 1.5 h, dose 1500 µg
[25] = Mutagenicity in Salmonella typhimurium TA102 assessed as mutagenic index ratio at 50 ug per plate incubated for 90 mins in presence of S9 fraction by AMES test; format: toxicity, subcellular, Salmonella enterica subsp. enterica serovar Typhimurium; settings: s9, 1.5 h, dose 50 µg
[26] = Mutagenicity in Salmonella typhimurium TA102 assessed as number of revertant colonies at 150 ug per plate incubated for 90 mins in presence of S9 fraction by AMES test (reference value: 130.00 +/- 6.93); format: toxicity, subcellular, Salmonella enterica subsp. enterica serovar Typhimurium; settings: s9, 1.5 h, dose 150 µg
[27] = Mutagenicity in Salmonella typhimurium TA98 assessed as mutagenic index ratio at 150 ug per plate incubated for 90 mins by AMES test; format: toxicity, Salmonella enterica subsp. enterica serovar Typhimurium; settings: in vivo, 1.5 h, dose 150 µg
Leishmania amazonensis = assay: Antileishmanial activity against Leishmania amazonensis IFLA/BR/1967/PH8 amastigotes infected in murine peritoneal macrophages incubated for 24 hrs by Giemsa staining based analysis; format: functional, organism-based; settings: IFLA/BR/1967/PH8, Peritoneal macrophage
[28] = Mutagenicity in Salmonella typhimurium TA102 assessed as number of revertant colonies at 5000 ug per plate incubated for 90 mins by AMES test (reference value: 110.67 +/- 20.15); format: toxicity, Salmonella enterica subsp. enterica serovar Typhimurium; settings: in vivo, 1.5 h, dose 5000 µg
[29] = Mutagenicity in Salmonella typhimurium TA102 assessed as number of revertant colonies at 500 ug per plate incubated for 90 mins by AMES test (reference value: 110.67 +/- 20.15); format: toxicity, Salmonella enterica subsp. enterica serovar Typhimurium; settings: in vivo, 1.5 h, dose 500 µg
[30] = Mutagenicity in Salmonella typhimurium TA98 assessed as mutagenic index ratio at 50 ug per plate incubated for 90 mins by AMES test; format: toxicity, Salmonella enterica subsp. enterica serovar Typhimurium; settings: in vivo, 1.5 h, dose 50 µg
[31] = Mutagenicity in Salmonella typhimurium TA100 assessed as mutagenic index ratio at 50 ug per plate incubated for 90 mins by AMES test; format: toxicity, Salmonella enterica subsp. enterica serovar Typhimurium; settings: in vivo, 1.5 h, dose 50 µg

IC50 (Leishmania amazonensis): 4.7 µM
Structure (SMILES): O=[N+]([O-])c1ncn(Cc2cn(-c3ccc(OC(F)(F)F)cc3)nn2)n1
Ratio [1]: 0.8
Ratio [2]: 1.4
Ratio [3]: 1.9
Ratio [4]: 1.4
Activity [5]: 141
Activity [6]: 24.67
Activity [7]: 159.33
Ratio [8]: 0.9
Ratio [9]: 0.7
Ratio [10]: 1.4
Ratio [11]: 1.3
Ratio IC50 (Trypanosoma cruzi): 68
Ratio [12]: 1
Activity [13]: 117.33
Activity [14]: 121.33
Ratio [15]: 1.1
Activity [16]: 104.33
Ratio [17]: 1.1
selectivity ratio [18]: > 556
Activity [19]: 215.33
Activity [20]: 190
Activity [21]: 15.33
Ratio [22]: 0.9
Ratio [23]: 1.3
Activity [24]: 98.33
Ratio [25]: 0.2
Activity [26]: 172.33
Ratio [27]: 1
Activity [28]: 143.67
Activity [29]: 159.67
Ratio [30]: 0.8
Ratio [31]: 1.1
